From USRE48335E1, “Polymyxin derivatives as antimicrobial compounds” (priority 2014, dated 2020)
Values after ≈ are worked out from the molar mass of the structure shown. Positions of bridges follow the written chain, without caps; N, C: chain ends. Non-standard residues stand in square brackets, D forms with d. Residues, ends and D or L forms follow the SMILES beside them. *: point of attachment. Benzoyl(4-CF3) = O=C(c1ccc(C(F)(F)F)cc1)*; Octanoyl = CCCCCCCC(=O)*; Orn = NCCC[C@H](N)C(=O)O; Dab = NCC[C@H](N)C(=O)O; Abu = CC[C@H](N)C(=O)O; Dap = NC[C@H](N)C(=O)O

Columns and labels:
Enterobacter cloacae = test system: Enterobacter cloacae
Protocol: (§1) MICs of the lipopeptides (trifluoroacetic acid salt, TFA) were determined by broth microdilution in cation-adjusted Mueller-Hinton broth (CAMHB) (Oxoid Australia, Thebarton, SA, Australia) according to Clinical and Laboratory Standards Institute standards (Clinical and Laboratory Standards Institute. Performance standards for antimicrobial susceptibility testing; eighteenth informational supplement M100-S18. Wayne, Pa., 2008). Polymyxin B (sulphate) was employed as control. […]

Acinetobacter baumannii = test system: Acinetobacter baumannii
Protocol: as §1

Pseudomonas aeruginosa = test system: Pseudomonas aeruginosa
Protocol: as §1

| Structure (SMILES) | Minimum inhibitory concentration, Ec FADDI-EC001 (Enterobacter cloacae) [µg/mL] | Minimum inhibitory concentration, Ec FADDI-EC003 (Enterobacter cloacae) [µg/mL] | Minimum inhibitory concentration, Ec FADDI-EC006 (Enterobacter cloacae) [µg/mL] | Minimum inhibitory concentration, Ab A ATCC 17978 (Acinetobacter baumannii) [µg/mL] | Minimum inhibitory concentration, Ab ATCC 19606 (Acinetobacter baumannii) [µg/mL] | Minimum inhibitory concentration, Ab FADDI-AB034 (Acinetobacter baumannii) [µg/mL] | Minimum inhibitory concentration, Pa ATCC 27853 (Pseudomonas aeruginosa) [µg/mL] | Minimum inhibitory concentration, Pa FADDI-PA022 (Pseudomonas aeruginosa) [µg/mL] | Minimum inhibitory concentration, Pa FADDI-PA025 (Pseudomonas aeruginosa) [µg/mL] |
| --- | --- | --- | --- | --- | --- | --- | --- | --- | --- |
| CCCCCCCC(=O)N[C@@H](CCN)C(=O)N[C@H](C(=O)N[C@@H](CN)C(=O)N[C@H]1CCNC(=O)[C@H]([C@@H](C)O)NC(=O)[C@H](CCN)NC(=O)[C@H](CCN)NC(=O)[C@H]([C@@H](C)O)NC(=O)[C@@H](CC(C)C)NC(=O)[C@H](CN)NC1=O)[C@@H](C)O [Compound 52] (Octanoyl-[Dab]T[Dap][Dab][Dap][dL]T[Dab][Dab]T; lactam 4-C) | 0.25 (≈ 0.224 µM) | 0.25 (≈ 0.224 µM) | 0.5 (≈ 0.448 µM) | 0.5 (≈ 0.448 µM) | 1 (≈ 0.897 µM) | 0.5 (≈ 0.448 µM) | 0.5 (≈ 0.448 µM) | 1 (≈ 0.897 µM) | >32 |
| CCCCCCCC(=O)N[C@@H](CCN)C(=O)N[C@H](C(=O)N[C@@H](CN)C(=O)N[C@H]1CCNC(=O)[C@H]([C@@H](C)O)NC(=O)[C@H](CCCN)NC(=O)[C@H](CCN)NC(=O)[C@H]([C@@H](C)O)NC(=O)[C@@H](CC(C)C)NC(=O)[C@H](CCN)NC1=O)[C@@H](C)O [Compound 53] (Octanoyl-[Dab]T[Dap][Dab][Dab][dL]T[Dab][Orn]T; lactam 4-C) | 0.5 (≈ 0.437 µM) | 2 (≈ 1.75 µM) | 8 (≈ 7 µM) | 8 (≈ 7 µM) | 16 (≈ 14 µM) | 8 (≈ 7 µM) | 8 (≈ 7 µM) | 2 (≈ 1.75 µM) | >32 |
| CCCCCCCC(=O)N[C@@H](CCN)C(=O)N[C@H](C(=O)N[C@@H](CN)C(=O)N[C@H]1CCNC(=O)[C@H]([C@@H](C)O)NC(=O)[C@H](CCN)NC(=O)[C@H](CCCN)NC(=O)[C@H]([C@@H](C)O)NC(=O)[C@@H](CC(C)C)NC(=O)[C@H](CCN)NC1=O)[C@@H](C)O [Compound 54] (Octanoyl-[Dab]T[Dap][Dab][Dab][dL]T[Orn][Dab]T; lactam 4-C) | <0.125 | <0.125 | 0.25 (≈ 0.219 µM) | 0.5 (≈ 0.437 µM) | 0.5 (≈ 0.437 µM) | 0.25 (≈ 0.219 µM) | 4 (≈ 3.5 µM) | 2 (≈ 1.75 µM) | 16 (≈ 14 µM) |
| CCCCCCCC(=O)N[C@@H](CCN)C(=O)N[C@H](C(=O)N[C@@H](CN)C(=O)N[C@H]1CCNC(=O)[C@H]([C@@H](C)O)NC(=O)[C@H](CCN)NC(=O)[C@H](CCN)NC(=O)[C@H]([C@@H](C)O)NC(=O)[C@@H](CC(C)C)NC(=O)[C@H](CCCN)NC1=O)[C@@H](C)O [Compound 55] (Octanoyl-[Dab]T[Dap][Dab][Orn][dL]T[Dab][Dab]T; lactam 4-C) | 1 (≈ 0.875 µM) | 4 (≈ 3.5 µM) | >32 | >32 | >32 | >32 | >32 | >32 | >32 |
| CC(C)C[C@H]1NC(=O)[C@H](CCN)NC(=O)[C@@H](NC(=O)[C@H](CN)NC(=O)[C@@H](NC(=O)[C@H](CCN)NC(=O)c2ccc(C(F)(F)F)cc2)[C@@H](C)O)CCNC(=O)[C@H]([C@@H](C)O)NC(=O)[C@H](CCN)NC(=O)[C@H](CCN)NC(=O)[C@H]([C@@H](C)O)NC1=O [Compound 56] ({Benzoyl(4-CF3)}-[Dab]T[Dap][Dab][Dab][dL]T[Dab][Dab]T; lactam 4-C) | <0.125 | <0.125 | 0.25 (≈ 0.213 µM) | 1 (≈ 0.851 µM) | 2 (≈ 1.7 µM) | 1 (≈ 0.851 µM) | 0.5 (≈ 0.425 µM) | 2 (≈ 1.7 µM) | 4 (≈ 3.4 µM) |
| CCCCCCCC(=O)N[C@@H](CCN)C(=O)N[C@H](C(=O)N[C@@H](CCN)C(=O)N[C@H]1CCNC(=O)[C@H]([C@@H](C)O)NC(=O)[C@H](CCN)NC(=O)[C@H](CCN)NC(=O)[C@H](CC)NC(=O)[C@@H](CC(C)C)NC(=O)[C@H](CCN)NC1=O)[C@@H](C)O [Compound 60] (Octanoyl-[Dab]T[Dab][Dab][Dab][dL][Abu][Dab][Dab]T; lactam 4-C) | <0.125 | <0.125 | 0.5 (≈ 0.443 µM) | 0.5 (≈ 0.443 µM) | 1 (≈ 0.887 µM) | 0.5 (≈ 0.443 µM) | 0.5 (≈ 0.443 µM) | 0.5 (≈ 0.443 µM) | 8 (≈ 7.1 µM) |
